Source: patent US6733777B2, “Cationic reagents of transfection” (Qiagen GmbH, priority 1996, dated 2004)
Values joined by “and” are separate entries in the source; they are usually repeats but may differ in a detail not shown here. Identical values can stand only once. Like-named read-outs stand apart in the source and are kept apart here.

Experiments:
Huh7 cells [1] = tested on: Huh7 cells
Protocol: The resulting liposomes were used to transfect Huh7 cells in vitro with the reporter plasmid pCMVβ (Clontech). Transfection efficiencies, as obtained by OD measurements after cell-lysis and β-Gal activity assay, were compared to efficiencies obtained in parallel with a commercially available liposome-preparation (Lipofectamine, Gibco LTI) and given as percentage of Lipofectamine efficiency. For each transfection, 0.5 μg of pCMVβ (isolated with EndoFree, QIAGEN) was used per well of a 96 well plate. The DNA was diluted to 50 μl with DMEM medium (Gibco LTI) and combined with 1, 2, 3 and 4 μl of the liposome preparations subsequently diluted to 50 μl with DMEM medium. DNA and liposome solutions were mixed and applied to the cells for 6 hours at 37° C., 5% CO2. Afterwards, medium was changed to DMEM containing 10% fetal calf serum. Cells were lysed after 48 h incubation at 37° C., 5% CO2. Twofold determinations each were performed. The values were averaged and the highest efficiency (optimum) within a row was given as percentage value of the highest efficiency (optimum) obtained with Lipofectamine.

Huh7 cells [2] = settings: liposome with DOPE, 0.5 μg pCMVβ
Protocol: (§1) Without sonication, liposomes were prepared at 60° C. by combining DOPE with one of the following:
(§2) The resulting liposomes were used to transfect HeLaS3 and Huh7 cells in vitro with the reporter plasmid pCMVβ (Clontech). Transfection efficiency values, obtained by taking OD measurements after cell-lysis and β-Gal activity assay, were compared to efficiencies obtained in parallel with a commercially available liposome-preparation (Lipofectamine, Gibco LTI) and given as percentage of Lipofectamine efficiency. In each transfection, 0.5 μg of pCMVβ (isolated with EndoFree, QIAGEN) was used per well of a 96 well plate. The DNA was diluted to 50 μl with DMEM medium (Gibco LTI) and combined with 1, 2, 3 and 4 μl of the liposome preparations subsequently diluted to 50 μl with DMEM medium. DNA and liposome solutions were mixed and applied to the cells for 6 hours at 37° C., 5% CO2. Afterwards, medium was changed to DMEM containing 10% fetal calf serum. Cells were lysed after 48 h incubation at 37° C., 5% CO2.
(§3) Twofold determinations each were performed. The values were averaged and the highest efficiency (optimum) within a row was given as percentage value of the highest efficiency (optimum) obtained with Lipofectamine.

HeLaS3 cells [3] = settings: liposome with DOPE, 0.5 μg pCMVβ
Protocol: as §1, §2, §3

HeLaS3 cells [4] = assay: Transfection of HeLaS3 cells with pCMVβ, β-Gal activity assay (variation of counter ion); type: cell-based; settings: 10-2-10 cytofectin with the given counter ion, liposome with DOPE, 0.5 μg pCMVβ
Protocol: Liposomes were used to transfect HeLaS3 cells in vitro with the reporter plasmid pCMVβ (Clontech). […] Cells were incubated for 48 hours at 37° C., 5% CO2 and then lysed.
In similar studies in HeLaS3 cells, the same vector was transfected with liposomes comprising bromide counter ions and the cytofectin, 10-2-10 Ethandiyl-1,2-bis(decyl dimethylammonium).

HeLaS3 cells [5] = settings: for Results (%) HeLaS3 (transfection efficiency as percentage of Lipofectamine efficiency): liposome with DOPE, 1 μg pCMVβ, optimum of 1-4 μl liposome
Protocol: (§4) Liposomes were prepared at 60° C. by combining 10-3-10 (Propandiyl-1,3-bis(decyl dimethylammonium bromide) and DOPE (as described in Example 3), with and without sonication.
(§5) Liposomes were used to transfect HeLaS3 and COS7 cells in vitro with the reporter plasmid pCMVβ (Clontech). Transfection efficiencies, as obtained by optical density (OD) measurements after cell-lysis and β-Gal activity assay, were compared to efficiencies obtained in parallel with a commercially available liposome-preparation (Lipofectamine, Gibco LTI) and given as percentage of Lipofectamine efficiency. For each transfection, 1 μg of pCMVβ (isolated with EndoFree, QIAGEN) was used per well of a 96-well plate. The DNA was diluted to 50 μl with DMEM medium (Gibco LTI) and combined with 1, 2, 3 and 4 μl of the liposome preparations subsequently diluted to 50 μl with DMEM medium. DNA and liposome solutions were mixed and applied to the cells for 6 hours at 37° C., 5% CO2. Afterwards, medium was changed to DMEM containing 10% fetal calf serum. Cells were lysed after 48 h incubation at 37° C., 5% CO2.
as §3

COS7 cells = settings: liposome with DOPE, 1 μg pCMVβ, optimum of 1-4 μl liposome
Protocol: as §4, §5, §3

[6] = Huh7, liposome with DOPE, X(DOPE) 0.50, without sonication, 0.5 μg pCMVβ
[7] = Huh7, liposome with DOPE, X(DOPE) 0.60, without sonication, 0.5 μg pCMVβ
[8] = X(DOPE) 0.50, without sonication
[9] = X(DOPE) 0.60, without sonication
[10] = X(DOPE) 0.70, without sonication
[11] = X(DOPE) 0.80, without sonication
[12] = Huh7, liposome with DOPE, X(DOPE) 0.70, without sonication, 0.5 μg pCMVβ
[13] = Huh7, liposome with DOPE, X(DOPE) 0.80, without sonication, 0.5 μg pCMVβ

Compound	Result (%) (transfection efficiency as percentage of Lipofectamine efficiency) (Huh7 cells [1]; [6])	Result (%) (transfection efficiency as percentage of Lipofectamine efficiency) (Huh7 cells [1]; [7])	Results (%) Huh7 (transfection efficiency as percentage of Lipofectamine efficiency) (Huh7 cells [2]; [8])	Results (%) Huh7 (transfection efficiency as percentage of Lipofectamine efficiency) (Huh7 cells [2]; [9])	Results (%) Huh7 (transfection efficiency as percentage of Lipofectamine efficiency) (Huh7 cells [2]; [10])	Results (%) Huh7 (transfection efficiency as percentage of Lipofectamine efficiency) (Huh7 cells [2]; [11])	Results (%) HeLaS3 (transfection efficiency as percentage of Lipofectamine efficiency) (HeLaS3 cells [3]; [8])	Results (%) HeLaS3 (transfection efficiency as percentage of Lipofectamine efficiency) (HeLaS3 cells [3]; [9])	Results (%) HeLaS3 (transfection efficiency as percentage of Lipofectamine efficiency) (HeLaS3 cells [3]; [10])	Results (%) HeLaS3 (transfection efficiency as percentage of Lipofectamine efficiency) (HeLaS3 cells [3]; [11])	Result (%) (transfection efficiency as percentage of Lipofectamine efficiency) (Huh7 cells [1]; [12])	Result (%) (transfection efficiency as percentage of Lipofectamine efficiency) (Huh7 cells [1]; [13])	further results
Br [10-2-10, Ethanediyl-1,2-bis(decyldimethylammonium bromide)]	142%	127%	142%	127%	111%	115%	216%	286%	165%	178%			Result (%) (transfection efficiency as percentage of Lipofectamine efficiency) (Huh7 cells [1]): 111% and 115%; Results (%) (optimal transfection efficiency as percentage of the highest efficiency obtained by Lipofectamine) (HeLaS3 cells [4]; [8]): 216%; Results (%) (optimal transfection efficiency as percentage of the highest efficiency obtained by Lipofectamine) (HeLaS3 cells [4]; [9]): 286%; Results (%) (optimal transfection efficiency as percentage of the highest efficiency obtained by Lipofectamine) (HeLaS3 cells [4]; [10]): 165%; Results (%) (optimal transfection efficiency as percentage of the highest efficiency obtained by Lipofectamine) (HeLaS3 cells [4]; [11]): 178%
Butanediyl-1,4-bis(decyl dimethyl-ammonium bromide) [10-4-10]			76%	62%	54%	34%	200%	257%	200%	123%			
Ethanediyl-1,2-bis(hexadecyl dimethylammonium bromide) [16-2-16]	104%	124%									126%	169%	
Ethanediyl-1,2-bis(octadecyl dimethylammonium bromide) [18-2-18]	82%	68%									105%	115%	
Ethanediyl-1,2-bis(tetradecyl dimethylammonium bromide) [14-2-14]	48%	74%									98%	157%	
Propandiyl-1,3-bis(decyl dimethylammonium bromide) [10-3-10]			80%	83%	54%	39%	241%	293%	223%	118%			Results (%) HeLaS3 (transfection efficiency as percentage of Lipofectamine efficiency) (HeLaS3 cells [5]; X(DOPE) 0.20, sonic. for 300 s): 39%; Results (%) HeLaS3 (transfection efficiency as percentage of Lipofectamine efficiency) (HeLaS3 cells [5]; X(DOPE) 0.20, w/o sonication): 39%; Results (%) HeLaS3 (transfection efficiency as percentage of Lipofectamine efficiency) (HeLaS3 cells [5]; X(DOPE) 0.35, sonic. for 300 s): 39%; Results (%) HeLaS3 (transfection efficiency as percentage of Lipofectamine efficiency) (HeLaS3 cells [5]; X(DOPE) 0.35, w/o sonication): 61%; Results (%) HeLaS3 (transfection efficiency as percentage of Lipofectamine efficiency) (HeLaS3 cells [5]; X(DOPE) 0.50, sonic. for 300 s): 47%; Results (%) HeLaS3 (transfection efficiency as percentage of Lipofectamine efficiency) (HeLaS3 cells [5]; X(DOPE) 0.50, w/o sonication): 115%; Results (%) HeLaS3 (transfection efficiency as percentage of Lipofectamine efficiency) (HeLaS3 cells [5]; X(DOPE) 0.65, sonic. for 300 s): 83%; Results (%) HeLaS3 (transfection efficiency as percentage of Lipofectamine efficiency) (HeLaS3 cells [5]; X(DOPE) 0.65, w/o sonication): 275%; cell-type specificity compared with Lipofectamine (HeLaS3 cells [5]; liposomes with DOPE, HeLaS3 versus COS7): more cell-type specific than Lipofectamine; Results % COS7 (transfection efficiency as percentage of Lipofectamine efficiency) (COS7 cells; X(DOPE) 0.20, sonic. for 300 s): 6%; Results % COS7 (transfection efficiency as percentage of Lipofectamine efficiency) (COS7 cells; X(DOPE) 0.20, w/o sonication): 6%; Results % COS7 (transfection efficiency as percentage of Lipofectamine efficiency) (COS7 cells; X(DOPE) 0.35, sonic. for 300 s): 6%; Results % COS7 (transfection efficiency as percentage of Lipofectamine efficiency) (COS7 cells; X(DOPE) 0.35, w/o sonication): 6%; Results % COS7 (transfection efficiency as percentage of Lipofectamine efficiency) (COS7 cells; X(DOPE) 0.50, sonic. for 300 s): 6%; Results % COS7 (transfection efficiency as percentage of Lipofectamine efficiency) (COS7 cells; X(DOPE) 0.50, w/o sonication): 7%; Results % COS7 (transfection efficiency as percentage of Lipofectamine efficiency) (COS7 cells; X(DOPE) 0.65, sonic. for 300 s): 8%; Results % COS7 (transfection efficiency as percentage of Lipofectamine efficiency) (COS7 cells; X(DOPE) 0.65, w/o sonication): 26%
